For this test, the system named is J774A.1 macrophages. Nature of the test: Serum-mediated cholesterol efflux (BODIPY-cholesterol). It is filed as cell-based. To be noted: compounds 10 µM, 24 h, then serum 6 h; pioglitazone 3 µM positive control.

Structures are written as SMILES. “Also recorded” adds a separate entry of the source.

As for `C/C=C/C=C/C(O)=C1/C(=O)C(C)=C(O)[C@@]2(C)O[C@@]3(O)[C@@](C)(O)C(=O)C(C(=O)CC/C=C/C)=C(O)[C@@]3(C)[C@@H]12` [Compound 11, dihydrobisvertinolone], the “cholesterol efflux enhancing activity” value was “significant cholesterol efflux enhancing activity; also recorded: exhibited cholesterol efflux enhancing activity”.

(Values after PMC8997241, “Structurally Various Sorbicillinoids From an Endophytic Fungus Acremonium citrinum SS-g13” (Frontiers in Microbiology, 2022).)
